Laboratory results as given in PubChem BioAssay (NCI).
“And” between values parts separate entries of the source, which are not always exact repeats. Equal entries are not always repeated.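 Five concentrations, 48 hours, 96-well plates. The concentration for 50% growth inhibition is given as GI50. The concentration for full growth arrest is given as TGI.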

Experiments:
Assay in all cases: NCI tumour cell line growth inhibition, 48 h
CAKI-1 renal = tested on: CAKI-1 renal
HCT-15 colon = tested on: HCT-15 colon
KM12 colon = tested on: KM12 colon
UO-31 renal = tested on: UO-31 renal
NCI-H460 lung = tested on: NCI-H460 lung
SN12C renal = tested on: SN12C renal
HOP-62 NSCLC = tested on: HOP-62 NSCLC
SW-620 colon = tested on: SW-620 colon
PC-3 prostate = tested on: PC-3 prostate
T-47D breast = tested on: T-47D breast

Compound | TGI (CAKI-1 renal) [µM] | TGI (HCT-15 colon) [µM] | TGI (KM12 colon) [µM] | TGI (UO-31 renal) | TGI (NCI-H460 lung) [µM] | TGI (SN12C renal) | TGI (HOP-62 NSCLC) [µM] | TGI (SW-620 colon) [µM] | GI50 (CAKI-1 renal) | GI50 (HCT-15 colon) [µM] | GI50 (KM12 colon) [µM] | GI50 (UO-31 renal) | GI50 (NCI-H460 lung) | GI50 (SN12C renal) | GI50 (HOP-62 NSCLC) [µM] | GI50 (SW-620 colon) [µM] | GI50 (PC-3 prostate) [µM] | TGI (PC-3 prostate) [µM] | TGI (T-47D breast) [µM] | GI50 (T-47D breast) [µM]
COc1cc(CC(=O)O)c([N+](=O)[O-])cc1OC | > 100 | > 100 | > 100 | > 100 µM | > 100 | > 100 µM | > 100 | > 100 | – | – | – | – | – | – | – | – | – | – | – | –
COc1ccc([C@@H]2OC(=O)C3C2C(=O)O[C@H]3c2ccc(OC)cc2)cc1 (stereo partly drawn) | > 100 | > 100 | > 100 | > 100 µM | > 100 | > 100 µM | > 100 | > 100 | – | – | – | – | – | – | – | – | – | – | – | –
[CH3][Hg]/[N]=C(/N)NC#N | 25.7 | 12.1 | 30 | 28 µM | 88.7 | 28.5 µM | 36.6 | 5.28 | 12.9 µM | 3.02 | 16.5 | 14.7 µM | 25 µM | 14 µM | 19.4 | 2.23 | – | – | – | –
Cc1cc(Cl)cc2c1NC(=O)C2(O)C(C(=O)c1ccccc1)c1ccccc1 (stereo not drawn) | > 100 | > 100 | > 100 | > 100 µM and 48.4 µM | > 100 | > 100 µM and 38.6 µM | > 100 | > 100 | 35.7 µM and > 100 µM | – | – | 67.6 µM and 27.3 µM | > 100 µM and 36.9 µM | > 100 µM and 14.9 µM | – | – | – | – | – | –
Cc1cc(C)c(/C=N/NS(=O)(=O)c2ccccc2)c(C)c1 | > 100 | > 100 | > 100 | > 100 µM | > 100 | > 100 µM | > 100 | > 100 | – | – | – | – | – | – | – | – | – | – | – | –
COC(=O)C(C(=O)C(=O)Nc1ccccc1C)c1nc2ccc([N+](=O)[O-])cc2[nH]c1=O (stereo not drawn) | > 100 | > 100 | > 100 | > 100 µM | > 100 | > 100 µM | > 100 | > 100 | – | – | – | – | – | – | – | – | – | – | – | –
COC(=O)c1c2c(c(C)[n+]([O-])c1C)C(=O)C(NCc1ccc(O)cc1)=CC2=O | 4.26 | 3.18 | 4.1 | 3.06 µM | 3.35 | 2.56 µM | 4.57 | 2.72 | 1.69 µM | 1.43 | 1.7 | 1.53 µM | 1.58 µM | 1.23 µM | 1.96 | 0.934 | 2 | 6.55 | – | –
Cc1[nH]nc(C(=O)N/N=C/c2ccccc2Cl)c1N=NN(C)C | > 100 | > 100 | > 100 | > 100 µM | > 100 | > 100 µM | – | > 100 | – | – | – | – | – | – | – | – | – | > 100 | > 100 | –
CCc1ccccc1NC(=O)C(=O)C1C(=O)N(c2ccccc2)N=C1N (stereo not drawn) | > 100 | > 100 | > 100 | > 100 µM | > 100 | > 100 µM | > 100 | > 100 | – | – | – | – | – | – | – | – | – | – | – | –
CC(=O)Nc1ccc(C2=N/C(=C\c3ccc(Cl)cc3)C(=O)O2)cc1 | > 100 | 37.1 | > 100 | 73.9 µM | > 100 | 61.5 µM | > 100 | 22.8 | – | – | – | – | – | – | – | – | – | – | – | –
CCCCCCCCCCCCCCCCCC[S+](C)CC (stereo not drawn) | 1.6 | 16.9 | 2.45 | 2.62 µM | – | 4.44 µM | – | 2.89 | 0.409 µM | 2.84 | 1.14 | 1.2 µM | – | 1.86 µM | – | 1.46 | – | – | 18.8 | 2.36
CC#CC#C/C(=C/C=CC(=O)OC)SC | > 100 | > 100 | > 100 | – | > 100 | > 100 µM | – | > 100 | – | – | – | – | – | – | – | – | – | > 100 | > 100 | –
Cc1ccc(NC(=O)CC2SC(=Nc3ccc(Cl)cc3)NC2=O)cc1C (stereo not drawn) | 35.9 | 29.3 | 40.3 | 32.6 µM | 18.2 | 31.9 µM | > 100 | 18.5 | – | – | – | – | – | – | – | – | – | – | – | –
Cc1cc(C)nc(NS(=O)(=O)c2ccc(NC(=O)COC(=O)c3cccc4c(=O)c5ccccc5[nH]c34)cc2)n1 | > 100 | > 100 | 38.8 | > 100 µM | > 100 | > 100 µM | 47.4 | 83.9 | – | – | – | – | – | – | – | – | – | – | – | –
CCOC(=O)C(=O)C(C#N)c1ccc(Cl)cc1 (stereo not drawn) | > 100 | > 100 | – | > 100 µM | > 100 | > 100 µM | > 100 | > 100 | – | – | – | – | – | – | – | – | – | – | – | –
